The values that follow come from patent publication US6569867B2, “Polyketide derivatives” (Kosan Biosciences, Inc., priority 1999, dated 2003).

Where “and” joins values, the source holds several entries; their conditions need not be identical. Identical values can stand only once. Like-named read-outs stand apart in the source and are kept apart here.

Data set [1] deals with T1, FKBP-12 (Homo sapiens, UniProt P62942).
T1 construct: purchased Sigma; host or cells: E. coli
As to the kind of experiment: FKBP-12 binding assay ([3H]FK-506 competition). The protocol: Calcineurin (“>95% pure by SDS/PAGE”) was obtained from Calbiochem. Neutravidin® coated strip plates, pre-blocked with SuperBlock® were obtained from Pierce. […] Synthetic RII peptide (^+[…]^-) was obtained from Peptides International (Louisville, […].com). […] ATP, cAMP, the catalytic subunit of protein kinase A, bovine brain calmodulin and human FKBP, expressed in E. coli were obtained from Sigma. […] The mixture was incubated for 2 hours at 0° C., the solution was aspirated from the wells, and each well was quickly washed with 300 uL of ice cold PBS-tween. Wells were broken apart, placed in scintillation vials with 10 mL of Scintiverse BD and bound radioactivity was quantitated by scintillation counting. […] to calculate the Kd.

Data set [2] has as its system SH-SY5Y human neuroblastoma cells. As to the kind of experiment: Nerve growth (neurite length) assay. The data set is classed as cell-based. The protocol: Table 9 summarizes the results of nerve growth as using SH-SY5Y human neuroblastoma cells according to Gold et al., Exp Neuro, 147(2): 269-87 (1997) which is incorporated herein by reference. The assay measures the mean neurite length in […] that were induced at 0.1 nM and 10 nM of the compound of interested after 96 or 168 hours.

Data set [3] concerns the target T2, Human 3A4 P-450 (Homo sapiens, UniProt P08684).
T2 construct: purchased Gentest Corporation (Woburn, Mass.) P207
As to the kind of experiment: P450 stability assay with 3A4 P-450 supersomes. Format: in vitro ADME. As to conditions: 20 μM FK species, 200 pmole P-450/mL, 37° C. The protocol: A mixture containing FK species and a NADPH regenerating system was pre-incubated at 37° C. for 10 minutes before the reaction was commenced by the addition of the P-450 supersomes. The final concentrations of the components were: 100 mM potassium phosphate, pH 7.4; 3.3 mM MgCl2; 3.3 mM glucose-6-phosphate; 1.3 mM NADP; 0.4 U/mL glucose-6-phosphate dehydrogenase; 200 pmole P-450/mL; and 20 μM FK species. Control reactions contained “mock” supersomes without 3A4 P-450 activity. Human 3A4 P-450+Reductase supersomes (cat #P207) and vector control “mock” supersomes without 3A4P-450 (cat #P201) were obtained from Gentest Corporation (Woburn, Mass.).
Following addition of supersomes or mock supersomes, reactions were terminated at 0 minutes (immediately upon addition of P-450) and 30 minutes by addition of acetonitrile containing 0.1% acetic acid to 20% final acetonitrile concentration, followed by freezing immediately on dry ice. For reactions containing the 13-desmethoxy-13-methyl-32-(2-hydroxyethylindolyl)-FK analog, an equal volume of MeOH was added following addition of acetonitrile and the samples were immediately frozen on dry ice. The samples were clarified by centrifugation at 13,000 rpm for 5 minutes at 4° C. in a micro centrifuge prior to HPLC analysis.
The following HPLC program was employed: Column =MetaChem 0.46×15 cm intersil C18 column (5 μm); Solvent A=0.1% HOAc in water; Solvent B=0.1 % HOAc in acetonitrile. Detection=UV (210 nm) and ELSD. Gradient: Equilibration with 20% B; injection (up to 1 ml), hold at 20% B for 5 minutes; linear gradient to 50% B in 5 minutes; linear gradient to 100% B in 20 minutes; to 20% B in 1 minute; hold at 20% B for 10 minutes to equilibrate.
There was no change in peak area after 30 minutes when the FK analogs were incubated with mock supersomes.

The conditions of data set [4]: cited from earlier work.
The target of data set [5] is calcineurin (Bos taurus, UniProt P48452+P62942+P63099). As to the kind of experiment: Calcineurin phosphatase inhibition assay (FKBP-compound complex). The data set is classed as biochemical. The note with it: 15 nM calcineurin, 30 nM calmodulin, 1 uM phospho-RII peptide, 30° C. The protocol: The catalytic subunit of protein kinase A was used to transfer the labeled phosphate from [γ-^32P]ATP to […] of the RII peptide. […] Fractions were collected and monitored by scintillation counting. […] The columns were prepared by resuspending the resin in water such that there was one volume of water above each volume of settled resin. The slurry (1 mL) was then pipetted into each column, followed by 10 mL of water. The bed volume was verified, then each column was washed with 1 mL 1 N NaOH, 2 mL 1 N HCl, and 4 mL water. Quenched reaction mixtures were applied to the columns, washed twice with 750 uL of water and the eluate was collected directly into scintillation vials. Scintiverse BD (15 mL) was added to each vial, and ^32PO4 was quantitated by scintillation counting. […] Following a 30 minute preincubation, reactions were initiated by addition of the phospho-RII peptide substrate to 1 uM and incubated at 30° C. Aliquots were removed at 3 and 35 minutes, quenched, and PO4 release was measured as described above.

Regarding `CC[C@@H]1/C=C(\C)C(O)[C@H](C)C[C@H](OC)[C@H]2O[C@@](O)(C(=O)C(=O)N3CCCC[C@H]3C(=O)O[C@H](/C(C)=C/[C@@H]3CC[C@@H](O)[C@H](OC)C3)[C@H](C)[C@@H](O)CC1=O)[C@H](C)C[C@@H]2C` (stereo partly drawn) [13-desmethoxy-13-methyl-18-hydroxyl-FK-520], in data set [1], the Kd was around 1 nM. In data set [2], this molecule showed a Neurite Length at 0.1 nM 96 h of 168 µm, a Neurite Length at 0.1 nM 168 h of 191 µm, a Neurite Length at 10 nM 96 h of 132 µm and a Neurite Length at 10 nM 168 h of 165 µm.
`CC[C@@H]1/C=C(\C)C[C@H](C)C[C@H](OC)[C@@H]2CC[C@@H](C)[C@@](O)(O2)C(=O)C(=O)N2CCCC[C@H]2C(=O)O[C@H](/C(C)=C/[C@@H]2CC[C@@H](O)[C@H](OC)C2)[C@H](C)[C@@H](O)CC1=O` [13-desmethoxy-FK-520] came in with a dissociation constant (Kd) in data set [1] of 0.4 nM. Moreover, the “P450 % Stability (at 30 min)” value in data set [3] worked out at 35%.
Taken in the same sequence, the figures for `CC[C@@H]1/C=C(\C)C[C@H](C)C[C@H](OC)[C@H]2O[C@@](O)(C(=O)C(=O)N3CCCC[C@H]3C(=O)O[C@H](/C(C)=C/[C@@H]3CC[C@@H](O)[C@H](OC)C3)[C@H](C)[C@@H](O)CC1=O)[C@H](C)C[C@@H]2OC` [FK-520, ascomycin, reference compound] were 0.4 nM and 46%.
Consider `C=CC[C@@H]1/C=C(\C)C[C@H](C)C[C@H](OC)[C@H]2O[C@@](O)(C(=O)C(=O)N3CCCC[C@H]3C(=O)O[C@H](/C(C)=C/[C@@H]3CC[C@@H](O)[C@H](OC)C3)[C@H](C)[C@@H](O)CC1=O)[C@H](C)C[C@@H]2OC.O` [FK-506, tacrolimus], for which, in data set [4] (in vivo), the “excreted unchanged in urine” value is listed as “less than 1%” and the half-life for distribution is 54 min. Besides, in data set [4] (ketoconazole, a drug that inhibits P450 3A), the “bioavailability with co-administration of ketoconazole” value was “doubles”. Besides, the “mean bioavailability of the oral dosage form” value in data set [4] (oral, range 5 to 65%) was 27%.
“32-[1-(2-Hydroxyethyl)-indol-5-yl]-13-desmethoxy-FK-520”: in data set [1] (competition with 0.5 μM [3H]FK-506, 2 hours at 0° C., Kd of [3H]FK-506 assumed to be 0.4 nM), the Kd was 16.3 nM and 10.4 nM. The Ki in data set [5] was < 15 nM and 22 nM. For the same molecule, the “P450 % Stability (at 30 min)” value in data set [3] is 72% and 77%.
`CC[C@@H]1/C=C(\C)C[C@H](C)C[C@H](OC)[C@H]2O[C@@](O)(C(=O)C(=O)N3CCCC[C@H]3C(=O)O[C@H](/C(C)=C/[C@@H]3CC[C@@H](O)[C@H](OC)C3)[C@H](C)[C@@H](O)CC1=O)[C@H](C)C[C@@H]2C` [13-desmethoxy-13-methyl-FK-520] gave a dissociation constant (Kd) in data set [1] of 1.6 nM. Moreover, the “P450 % Stability (at 30 min)” value in data set [3] is 26%.
In data set [2], “18-ene-20-oxa-13-desmethoxy-13-methyl-FK-520” yielded a Neurite Length at 0.1 nM 96 h of 144 µm, a Neurite Length at 0.1 nM 168 h of 184 µm, a Neurite Length at 10 nM 96 h of 104 µm and a Neurite Length at 10 nM 168 h of 135 µm.
For “Nerve Growth Factor: protein neurotrophic molecule used as comparator in the neurite length assay”, in data set [2], the Neurite Length at 0.1 nM 96 h came to 143 µm and the Neurite Length at 0.1 nM 168 h was 169 µm.

In general, Kd refers to the free concentration of one partner at which half of the binding sites on the other are occupied at equilibrium, for simple one-to-one binding. A lower Kd goes with tighter binding. As usually defined, the Ki is the equilibrium dissociation constant of an inhibitor or competing ligand from its target.
